Test results: patent US20190381017A1, “Compositions Comprising Serdexmethylphenidate Conjugates And Methods Of Use Thereof” (KemPharm, Inc., priority 2018, published 2019)
“And” between values parts separate entries of the source, which are not always exact repeats. Equal values may be shown once. Where a name gives a salt, the structure may show the parent alone.

What was measured:
[1] = system: healthy, nondependent, recreational stimulant users with intranasal insufflation experience; test: Intranasal abuse potential, VAS pharmacodynamic scores (Example 5); assay type: in vivo, human
Protocol: Subjects who successfully completed the Screening Period returned to the clinic to complete the Drug Discrimination Phase. The Drug Discrimination Test was performed to ensure that subjects can differentiate between the effects of a single dose of d-methylphenidate hydrochloride and placebo, administered intranasally. Subjects who successfully completed the Drug Discrimination Phase remained as inpatients to enter the Treatment Phase. The Drug Discrimination Phase was a double-blind, intranasal, single-dose, 2-treatment, 2-period, 2-sequence, randomized, crossover design.
The placebo dose consisted of 80 mg of microcrystalline cellulose to create the same volume.
On dosing days in the Treatment Phase, blood samples were collected for the measurement of the plasma concentrations of SDX, d-methylphenidate (d-MPH), l-methylphenidate (l-MPH) and ritalinic acid at predose and at 0.25, 0.5, 0.75, 1, 1.5, 2, 3, 4, 5, 6, 7, 8, 9, 10, 12, 16, 24, 36, and 48 hours±5 minutes after each dose of study drug. […] All VAS pharmacodynamic assessments except Take Drug Again and Overall Drug Liking were performed at 0.25, 0.5, 0.75, 1, 1.5, 2, 3, 4, 5, 6, 7, 8, 10, 12, 24 hours±5 minutes postdose. In addition, predose assessments of Feeling High, and Drowsiness/Alertness were collected. The Take Drug Again and Overall Drug Liking VAS assessments were performed at 12 and 24 hours±5 minutes postdose.

[2] = system: healthy, nondependent, recreational stimulant users with intranasal insufflation experience; test: Treatment-emergent adverse events, intranasal study (Example 5, Table 54)
Protocol: The study consisted of a Screening Period, an in-clinic Drug Discrimination Phase, a Treatment Phase, and a Follow-Up Visit.
All subjects were required to fast for at least 8 hours prior to each dose of study drug until approximately 4 hours after each dose. Abuse potential measures and pharmacokinetic samples were collected at different times after the administration of study drug. Subjects who successfully completed the Drug Discrimination Phase and who qualified for the Treatment Phase remained as inpatients to enter the Treatment Phase.

[3] = SDX Cl 80 mg, d-MPH HCl 40 mg, 12 hours, bipolar VAS
[4] = SDX Cl 80 mg, d-MPH HCl 40 mg, 24 hours, bipolar VAS
[5] = SDX Cl 80 mg, d-MPH HCl 40 mg, bipolar VAS
[6] = SDX Cl 80 mg, d-MPH HCl 40 mg, unipolar VAS
[7] = d-MPH HCl 40 mg vs SDX Cl 80 mg
[8] = d-MPH HCl 40 mg (N = 46), SDX Cl 80 mg (N = 46)

COC(=O)[C@H](c1ccccc1)[C@H]1CCCCN1 [d-methylphenidate hydrochloride, d-threo-methylphenidate hydrochloride]
Mean difference Any Effect Emax vs placebo ([1]; SDX Cl 80 mg, d-MPH HCl 40 mg): 88.6
Mean difference Ease of Nasal Insufflation Emax vs placebo ([1]; SDX Cl 80 mg, d-MPH HCl 40 mg): 11.3
Mean difference Feeling Drowsy/Alert Emax vs placebo ([1]; SDX Cl 80 mg, d-MPH HCl 40 mg): 42.3
Mean difference Feeling High Emax vs placebo ([1]; SDX Cl 80 mg, d-MPH HCl 40 mg): 85.2
Mean difference Good Effects Emax vs placebo ([1]; SDX Cl 80 mg, d-MPH HCl 40 mg): 90.0
Mean difference Overall Drug Liking vs placebo, 24 hours ([1]; SDX Cl 80 mg, d-MPH HCl 40 mg): 26.1
Mean difference Take Drug Again vs placebo, 12 hours ([1]; SDX Cl 80 mg, d-MPH HCl 40 mg): 29.1
Mean difference Take Drug Again vs placebo, 24 hours ([1]; SDX Cl 80 mg, d-MPH HCl 40 mg): 28.3
Mean difference Take Drug Again vs placebo, Emax ([1]; SDX Cl 80 mg, d-MPH HCl 40 mg): 31.1
Median difference Bad Effects Emax vs placebo ([1]; SDX Cl 80 mg, d-MPH HCl 40 mg): 10.5
Mean Overall Drug Liking [1, 3]: 79.6
Mean Take Drug Again [1, 3]: 78.2
Median Overall Drug Liking [1, 3]: 87
Median Take Drug Again [1, 3]: 91
Mean Overall Drug Liking [1, 4]: 76.3
Mean Take Drug Again [1, 4]: 77.4
Median Overall Drug Liking [1, 4]: 82
Median Take Drug Again [1, 4]: 94
Drug Liking Emax (median) [1, 5]: 100
Feeling Drowsy/Alert Emax (mean) [1, 5]: 93.4
Feeling Drowsy/Alert Emax (median) [1, 5]: 100
Overall Drug Liking Emax (mean) [1, 5]: 81.0
Overall Drug Liking Emax (median) [1, 5]: 90
Take Drug Again Emax (mean) [1, 5]: 80.3
Take Drug Again Emax (median) [1, 5]: 95
Drug Liking Emax (mean) ([1]; SDX Cl 80 mg, d-MPH HCl 40 mg, bipolar VAS, hydrochloride): 93 and 93.2
Any Effect Emax (mean) [1, 6]: 89.2
Any Effect Emax (median) [1, 6]: 100
Bad Effects Emax (mean) [1, 6]: 18.6
Bad Effects Emax (median) [1, 6]: 2
Ease of Nasal Insufflation (mean) [1, 6]: 18.1
Ease of Nasal Insufflation (median) [1, 6]: 7
Feeling High Emax (mean) [1, 6]: 88.0
Feeling High Emax (median) [1, 6]: 97
Good Effects Emax (mean) [1, 6]: 90.6
Good Effects Emax (median) [1, 6]: 97
Median difference Drug Liking Emax vs placebo ([1]; d-MPH HCl 40 mg): 45
Median difference Overall Drug Liking vs placebo, 12 hours ([1]; d-MPH HCl 40 mg): 33.5
Median difference Overall Drug Liking vs placebo, Emax ([1]; d-MPH HCl 40 mg): 35
Mean difference Any Effect Emax [1, 7]: 39.8
Mean difference Drug Liking Emax [1, 7]: 22.3
Mean difference Ease of Nasal Insufflation Emax [1, 7]: -47.7
Mean difference Feeling Drowsy/Alert Emax [1, 7]: 22.2
Mean difference Feeling High Emax [1, 7]: 44.5
Mean difference Good Effects Emax [1, 7]: 45.7
Mean difference Overall Drug Liking, 12 hours [1, 7]: 19.2
Mean difference Overall Drug Liking, 24 hours [1, 7]: 17.3
Mean difference Overall Drug Liking, Emax [1, 7]: 19.3
Mean difference Take Drug Again, 12 hours [1, 7]: 21.5
Mean difference Take Drug Again, 24 hours [1, 7]: 21.5
Mean difference Take Drug Again, Emax [1, 7]: 20.3
Median difference Bad Effects Emax [1, 7]: 0
TEAE: Abdominal distension [2, 8]: 0 n (%) [E]
TEAE: Agitation [2, 8]: 0 n (%) [E]
TEAE: Arthralgia [2, 8]: 0 n (%) [E]
TEAE: Catheter site haematoma [2, 8]: 0 n (%) [E]
TEAE: Catheter site swelling [2, 8]: 0 n (%) [E]
TEAE: Chest pain [2, 8]: 0 n (%) [E]
TEAE: Claustrophobia [2, 8]: 0 n (%) [E]
TEAE: Cough [2, 8]: 0 n (%) [E]
TEAE: Dizziness [2, 8]: 0 n (%) [E]
TEAE: Dysgeusia [2, 8]: 0 n (%) [E]
TEAE: Dyspepsia [2, 8]: 0 n (%) [E]
TEAE: Ecchymosis (skin discoloration) [2, 8]: 0 n (%) [E]
TEAE: Epistaxis (nosebleed) [2, 8]: 0 n (%) [E]
TEAE: Eye pain [2, 8]: 0 n (%) [E]
TEAE: Feeling of relaxation [2, 8]: 0 n (%) [E]
TEAE: Head discomfort [2, 8]: 0 n (%) [E]
TEAE: Infections and infestations [2, 8]: 0 n (%) [E]
TEAE: Irritability [2, 8]: 0 n (%) [E]
TEAE: Lacrimation increased [2, 8]: 0 n (%) [E]
TEAE: Nasal dryness [2, 8]: 0 n (%) [E]
TEAE: Pharyngitis [2, 8]: 0 n (%) [E]
TEAE: Phlebitis superficial [2, 8]: 0 n (%) [E]
TEAE: Pyrexia [2, 8]: 0 n (%) [E]
TEAE: Rhinorrhoea (runny nose) [2, 8]: 0 n (%) [E]
TEAE: Sneezing [2, 8]: 0 n (%) [E]
TEAE: Upper-airway cough syndrome [2, 8]: 0 n (%) [E]
TEAE: Vomiting [2, 8]: 0 n (%) [E]
typical stimulant-related adverse events (euphoric mood, hypervigilance, cardiac palpitations, tachycardia), frequency vs intranasal SDX Cl [2, 7]: occurred more often
